# Source: the supplement of paper PMC10307832
# Compound: COc1cc2nc(N3CCCN(C)CC3)nc(NC3CCN(Cc4ccccc4)CC3)c2cc1OC + CS(=O)(=O)CCNCc1ccc(-c2ccc3ncnc(Nc4ccc(OCc5cccc(F)c5)c(Cl)c4)c3c2)o1 [Lapatinib] (partner 2 µM)
# Assay: relative viability (nuclei count vs DMSO), 5 days (fraction); higher = more cells survive
# Settings: first compound 0.2 µM
# Outline: (§1)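 Relative viability is defined as nuclei in treated wells over nuclei in vehicle wells. Duplicate plates were run and medians reported. Lung cancer cell lines in 1536-well plates were dosed by pin tool one day after seeding, with one drug or with a fixed anchor-drug dose plus five library-drug doses (not always all listed) in √10 steps, and nuclei were counted after 5 days.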
row,Cell Line,relative viability
1,NCI-H2009,0.871
2,A-427,1.07
3,NCI-H661,0.568
4,NCI-H1734,1.11
5,NCI-H460,0.9
6,NCI-H2347,0.901
7,SK-LU-1,0.818
8,201T,0.95
9,NCI-H1915,1.01
10,HCC-827,0.181
11,LXF-289,0.854
12,NCI-H23,1.02
13,NCI-H647,1.16
14,CAL-12T,0.58
15,NCI-H1651,0.785
16,EPLC-272H,0.947
17,NCI-H2228,0.959
18,NCI-H1792,0.953

row,Cell Line,relative viability
1,NCI-H1355,1.01
2,NCI-H3122,1.07
3,NCI-H1437,0.754
4,NCI-H1755,1.03
5,NCI-H2023,0.87
6,HCC-15,0.888
7,PC-14,0.334
8,EKVX,0.194
9,LC-2-ad,0.853
10,NCI-H1563,0.913
11,NCI-H1944,0.778
12,NCI-H1975,0.93
13,RERF-LC-KJ,0.832
14,ABC-1,1.09
15,NCI-H358,0.449
16,NCI-H650,0.731
17,PC-3 [JPC-3],0.481

# Same assay, conditions: first compound 0.6325 µM
row,Cell Line,relative viability
1,NCI-H2009,0.888
2,A-427,0.977
3,NCI-H661,0.503
4,NCI-H1734,0.977
5,NCI-H460,0.979
6,NCI-H2347,1.01
7,SK-LU-1,0.754
8,201T,1.04
9,NCI-H1915,0.875
10,HCC-827,0.196
11,LXF-289,0.878
12,NCI-H23,1.03
13,NCI-H647,0.967
14,CAL-12T,0.626
15,NCI-H1651,0.807
16,EPLC-272H,1.1
17,NCI-H2228,1.34
18,NCI-H1792,0.893

row,Cell Line,relative viability
1,NCI-H1355,0.992
2,NCI-H3122,1.01
3,NCI-H1437,0.888
4,NCI-H1755,1.02
5,NCI-H2023,0.836
6,HCC-15,0.789
7,PC-14,0.339
8,EKVX,0.218
9,LC-2-ad,0.992
10,NCI-H1563,0.982
11,NCI-H1944,0.961
12,NCI-H1975,0.968
13,RERF-LC-KJ,0.863
14,ABC-1,1.14
15,NCI-H358,0.554
16,NCI-H650,0.839
17,PC-3 [JPC-3],0.424

# Same assay, conditions: first compound 2 µM
row,Cell Line,relative viability
1,NCI-H2009,1.08
2,A-427,1.05
3,NCI-H661,0.68
4,NCI-H1734,1.06
5,NCI-H460,0.902
6,NCI-H2347,0.954
7,SK-LU-1,1
8,201T,1.08
9,NCI-H1915,1.02
10,HCC-827,0.198
11,LXF-289,0.886
12,NCI-H23,1.37
13,NCI-H647,1.11
14,CAL-12T,0.603
15,NCI-H1651,0.834
16,EPLC-272H,1.03
17,NCI-H2228,1.23

row,Cell Line,relative viability
1,NCI-H1792,0.94
2,NCI-H1355,1.05
3,NCI-H3122,1.01
4,NCI-H1437,0.966
5,NCI-H1755,1.06
6,NCI-H2023,0.961
7,HCC-15,0.824
8,PC-14,0.372
9,EKVX,0.232
10,LC-2-ad,1.01
11,NCI-H1563,0.81
12,NCI-H1975,1.01
13,RERF-LC-KJ,0.875
14,ABC-1,1.25
15,NCI-H358,0.49
16,NCI-H650,1.3
17,PC-3 [JPC-3],0.438

# Same assay, conditions: first compound 6.325 µM
row,Cell Line,relative viability
1,NCI-H2009,0.901
2,A-427,1
3,NCI-H661,0.563
4,NCI-H1734,0.76
5,NCI-H460,0.487
6,NCI-H2347,0.911
7,SK-LU-1,0.839
8,201T,0.982
9,NCI-H1915,0.956
10,HCC-827,0.193
11,LXF-289,0.907
12,NCI-H23,1.02
13,NCI-H647,0.417
14,CAL-12T,0.672
15,NCI-H1651,0.855
16,EPLC-272H,0.938
17,NCI-H2228,0.757
18,NCI-H1792,1.02

row,Cell Line,relative viability
1,NCI-H1355,0.951
2,NCI-H3122,1.01
3,NCI-H1437,0.698
4,NCI-H1755,0.927
5,NCI-H2023,0.115
6,HCC-15,0.765
7,PC-14,0.308
8,EKVX,0.223
9,LC-2-ad,0.898
10,NCI-H1563,0.734
11,NCI-H1944,0.762
12,NCI-H1975,0.881
13,RERF-LC-KJ,0.829
14,ABC-1,1.05
15,NCI-H358,0.347
16,NCI-H650,0.692
17,PC-3 [JPC-3],0.468

# Compound: COc1cc2nc(N3CCCN(C)CC3)nc(NC3CCN(Cc4ccccc4)CC3)c2cc1OC + C[C@@H](Oc1cc(-c2cnn(C3CCNCC3)c2)cnc1N)c1c(Cl)ccc(F)c1Cl [Crizotinib] (partner 1 µM)
# Assay: as above
# Settings: first compound 0.2 µM
# Outline: as §1
row,Cell Line,relative viability
1,NCI-H2009,1.05
2,A-427,0.861
3,NCI-H661,0.995
4,NCI-H1734,0.66
5,NCI-H460,0.833
6,NCI-H2347,0.794
7,SK-LU-1,0.858
